Reference: US12240870B2, “Sequencing method for CAR T cell therapy” (Purdue Research Foundation, priority 2018, dated 2025)
“Also recorded” adds a separate entry of the source.

Key:
unsorted E2-CAR-T cells = assay: 3H-EC17 uptake by E2-CAR-T cells; parameters: species or system human; settings: unsorted E2-CAR-T cells (~24% EGFRt+, ~95:5 CD8/CD4), 2 hour at room temperature; read-out: Kd of 3H-EC17 binding to E2-CAR-T cells
Method: FIG. 10, Panel A: Kd values of ^3H-EC17 uptake by FR+ target cells after a 2 hour incubation at 37° C. (calculated from the numbers of molecules bound per cell). Panel B: Kd value of ^3H^−EC17 uptake by E2-CAR-T cells (˜24% EGFRt+, ˜95:5 CD8/CD4 ratio) after a 2 hour incubation at room temperate (calculated from total cell-associated radioactivity, DPM).
The EC17 has already been tested in the clinic for immunotherapy and optical imaging purposes. To directly quantify its bispecific binding affinities, ^3H-EC17 was synthesized and radioligand binding assays were carried out on KB and CHO-β cell lines representing FRα+ and FRβ+ target cells, respectively, and on unsorted EGFRt CAR-T cells representing the effector cells.

HOS-FRα xenografts = assay: HOS-FRα osteosarcoma subcutaneous xenograft, E2 CAR-T cells plus EC17; type: in vivo, NSG mice
From the text: Panel A: Schematic diagram to show dose scheduling of CAR-T cells (˜6 million, day 0) plus EC17 in NSG mice with 3-day-old subcutaneous HOS-FRα xenografts (n=5). Starting 3 days after CAR-T cell injection (6 days after tumor implant), 3 cycles of EC17 M/Th/M […], i.e. on days 3/6/10, 17/20/24, and 31/34/38. Panel B: Measurements of tumor volumes and change in body weights. Due to tumor progression, five mice received CAR-T cells only (no EC17) were euthanized on days 23-31, and five EC17 treated mice were euthanized on days 33 (2 mice) and 47 (3 mice), respectively. Panel C: Flow cytometric analysis of CAR-T cells (human CD3ε+EGFRT+) PER 100 μL OF WHOLE BLOOD PLOTTED ON A LOGARITHMIC SCALE (LEFT) AND TUMOR-infiltrating CAR-T cells at the time of euthanasia (right).
HOS-FRα (i.e. HOS-143b-LV-FRα) is a subclone of HOS-143B (ATCC CRL-8303) stably transfected with human FRα. HOS-143B was originally derived from a […] with osteosarcoma. The tumor cells were grown in folate-deficient RPMI 1640 with 5% FBS at 37° C. in a 5% CO2 humidified atmosphere. For the in-vivo study, tumor cells were inoculated subcutaneously at 1×10^6 cells per animal.
EGFRt-sorted anti-FITC E2 scFv-CAR T cells were frozen in a T-cell freezing medium. Upon arrival, vials of frozen CAR-T cells were immediately stored at −80° C. The CAR-T cells were quickly thawed at 37° C., washed twice with PBS, and used for animal injection at 6 million viable EGFRt+ E2 CAR-T cells (CD4/CD8 at ˜1:1) per animal. A small aliquot was taken on the day infusion for flow cytometric analysis of E2-CAR T-cell phenotypes.
EC17 dosing solutions were prepared when dosing began by weighing appropriate amounts of each compound, reconstituting in PBS, pH 7.4, sterile filtering the drug solution through a 0.22 μm PVDF syringe filter, and freezing aliquots for each day of dosing at −20° C.
All EC17 doses were given towards the end of day (3-4 PM) to allow potential CRS (cytokine release syndrome) to develop overnight. On the following morning, animals were scored according to a CRS grading system (see below).
Tumor growth, body weight, and overall assessment: Tumor sizes were monitored 2-3 times/week and body weight measured 2-3 times/week. On the days immediately after any EC17 dose, body weight measurement was taken daily and attention was given to gross animal morphology and behavior.
Euthanasia: Euthanasia was performed when mice had lost ≥20% of their weight, when tumors reached ≥1500 mm^3. Euthanasia was also performed if mice lost a lot of weight in a short duration (e.g., due to severe head-tilt), or when they approached moribund conditions per CRS grading system. • EC17 intra-host dose escalation treatment (3 cycles). See FIG. 16. • Antitumor activity (N=5)
All animal care and use were performed according to NIH guidelines and in compliance with protocols approved by the Purdue University Animal Use and Care Committee. Female 4 to 5-week-old NOD/SCID gamma (NSG™) mice (stock number: 005557) were purchased from The Jackson Laboratory (Bar Harbor, ME). Unless specifically indicated, all animals were maintained on a FA-deficient diet (TestDiet, St. Louis, MO) upon arrival and throughout the study. To establish subcutaneous xenografts, MDA-MB-231 and HOS-FRα were implanted in the right flank region at 2.5×10^6 and 1×10^6 cells per animal, respectively. […] Subcutaneous tumors were measured 2-3 times per week with a caliper and calculated using the ellipsoidal formula (length×width^2)/2. […]

Nc1nc2ncc(CNc3ccc(C(=O)N[C@@H](CCC(=O)NCCNC(=S)Nc4ccc(-c5c6ccc(=O)cc-6oc6cc(O)ccc56)c(C(=O)O)c4)C(=O)O)cc3)nc2c(=O)[nH]1 [EC17, FA-(γ)-ethylenediamine-FITC]
Kd (unsorted E2-CAR-T cells): ~130 nM
tumor volume (antitumor activity) (HOS-FRα xenografts; 6 million E2 CAR-T cells + EC17 5/100/1000 nmol/kg, M/Th/M (Cohort 2, FIG. 4)): significant tumor regression
body weight loss or CRS (HOS-FRα xenografts; 6 million E2 CAR-T cells + EC17 slow dose escalation M/Th/M (Cohort 2, FIG. 4)): without body weight loss or CRS; also recorded: No body weight loss or symptoms of cytokine release syndrome (CRS) were observed
day of euthanasia due to tumor progression (HOS-FRα xenografts; five EC17 treated mice, EC17 M/Th/M dose escalation): 33 (2 mice) and 47 (3 mice) days
CRS or body weight loss (HOS-FRα xenografts; ~6 million E2-CAR-T cells + EC17 5/10/100, 5/30/300, 5/50/500 nmol/kg Cycles 1-3, M/Th/M (FIG. 14)): no CRS or body weight loss
tumor growth (HOS-FRα xenografts; ~6 million E2-CAR-T cells + EC17 5/10/100, 5/30/300, 5/50/500 nmol/kg Cycles 1-3, M/Th/M, 6-day break (FIG. 14)): significant delay in tumor growth; also recorded: stopped responding to treatment in Cycle 3
